This experiment deals with human GluN1/GluN2B NMDA receptors (Homo sapiens, UniProt Q05586+Q13224). Description: Cell-based calcium flux (FLIPR) assay on cloned human GluN1/GluN2B ion channels expressed in mammalian cells. As to conditions: standard assay; glutamate ~EC40, 10 μM glycine; stable Tet-On cell line. The procedure, abridged:
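Tet-On-induced stable cells expressing human GluN1/GluN2B, Calcium 5 dye. Compounds preincubated 5 min (agonist check), then glutamate at ~EC40 plus 10 μM glycine added for 5 min; Mg2+ and buffer composition differ between standard and HTS formats. FLIPR Tetra fluorescence normalised to control wells; (+)MK-801 as antagonist control.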

SMILES strings stand for the structures.

Sequence of human GluN1/GluN2B NMDA receptors (Q13224 27-1484, other chains not shown): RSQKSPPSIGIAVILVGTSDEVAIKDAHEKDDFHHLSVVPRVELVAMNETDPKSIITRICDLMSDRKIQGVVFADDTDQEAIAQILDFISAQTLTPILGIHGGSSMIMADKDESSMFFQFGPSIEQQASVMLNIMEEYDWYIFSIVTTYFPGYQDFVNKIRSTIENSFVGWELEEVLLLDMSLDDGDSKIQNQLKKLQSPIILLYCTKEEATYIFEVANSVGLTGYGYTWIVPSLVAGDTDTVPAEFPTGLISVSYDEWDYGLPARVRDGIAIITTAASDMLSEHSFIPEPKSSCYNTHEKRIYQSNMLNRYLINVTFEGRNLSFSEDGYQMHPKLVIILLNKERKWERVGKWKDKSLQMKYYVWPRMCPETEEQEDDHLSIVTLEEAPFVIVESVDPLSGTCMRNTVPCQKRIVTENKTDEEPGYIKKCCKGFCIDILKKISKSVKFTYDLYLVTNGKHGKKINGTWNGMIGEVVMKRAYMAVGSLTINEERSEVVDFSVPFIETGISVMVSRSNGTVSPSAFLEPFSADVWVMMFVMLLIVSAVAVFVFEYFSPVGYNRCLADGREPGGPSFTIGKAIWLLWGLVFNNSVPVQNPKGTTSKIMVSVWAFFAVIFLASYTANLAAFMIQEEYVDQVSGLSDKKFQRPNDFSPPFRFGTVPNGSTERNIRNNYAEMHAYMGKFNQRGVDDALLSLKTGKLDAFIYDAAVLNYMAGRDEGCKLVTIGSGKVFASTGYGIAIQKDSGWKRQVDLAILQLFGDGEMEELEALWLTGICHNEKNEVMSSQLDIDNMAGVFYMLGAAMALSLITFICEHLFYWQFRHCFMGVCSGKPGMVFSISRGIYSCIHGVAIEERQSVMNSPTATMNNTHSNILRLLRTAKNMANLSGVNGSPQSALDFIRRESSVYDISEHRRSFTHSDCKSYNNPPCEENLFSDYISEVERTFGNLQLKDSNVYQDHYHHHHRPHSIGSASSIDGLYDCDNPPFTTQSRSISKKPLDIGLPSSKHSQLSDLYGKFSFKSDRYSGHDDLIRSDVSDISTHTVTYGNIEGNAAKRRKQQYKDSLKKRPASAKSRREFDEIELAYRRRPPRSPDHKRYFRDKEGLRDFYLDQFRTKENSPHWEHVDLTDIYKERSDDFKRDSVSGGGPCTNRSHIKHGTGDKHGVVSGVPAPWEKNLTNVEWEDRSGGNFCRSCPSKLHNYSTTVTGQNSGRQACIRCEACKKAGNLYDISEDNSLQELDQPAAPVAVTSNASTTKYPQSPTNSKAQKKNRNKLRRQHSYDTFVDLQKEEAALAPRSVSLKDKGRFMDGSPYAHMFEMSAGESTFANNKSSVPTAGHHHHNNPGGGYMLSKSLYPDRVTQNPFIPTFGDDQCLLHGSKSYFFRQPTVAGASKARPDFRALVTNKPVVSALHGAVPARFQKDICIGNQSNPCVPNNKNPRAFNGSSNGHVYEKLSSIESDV

For `COc1ncc(-c2cccc(Cl)c2)cc1CN1CCOC1=O` [Example 109, 3-[[5-(3-Chlorophenyl)-2-methoxy-3-pyridyl]methyl]oxazolidin-2-one], the IC50 was 477 nM.

Turning to `COc1ncc(-c2ccc(F)c(C(C)(F)F)c2)cc1CN1CCOC1=O` [Example 110, 3-[[5-[3-(1,1-Difluoroethyl)-4-fluoro-phenyl]-2-methoxy-3-pyridyl]methyl]oxazolidin-2-one], the IC50 was 37 nM.

With `COc1ncc(-c2cccc(C(C)(F)F)c2)cc1CN1CCOC1=O` [Example 111, 3-[[5-[3-(1,1-Difluoroethyl)phenyl]-2-methoxy-3-pyridyl]methyl]oxazolidin-2-one], the IC50 is 47 nM.

As for `COc1ncc(-c2cc(C)c(F)c(F)c2)cc1CN1CCOC1=O` [Example 112, 3-[[5-(3,4-Difluoro-5-methyl-phenyl)-2-methoxy-3-pyridyl]methyl] oxazolidin-2-one], the IC50 was 18 nM.

With `COc1ncc(-c2ccc(F)c(OC(F)(F)F)c2)cc1CN1CCOC1=O` [Example 113, 3-[[5-[4-Fluoro-3-(trifluoromethoxy)phenyl]-2-methoxy-3-pyridyl]methyl]oxazolidin-2-one], the IC50 turned out to be 13 nM.

Consider `COc1ncc(-c2cc(F)cc(C)c2F)cc1CN1CCOC1=O` [Example 114, 3-[[5-(2,5-Difluoro-3-methyl-phenyl)-2-methoxy-3-pyridyl]methyl] oxazolidin-2-one], for which the half-inhibitory concentration (IC50) stood at 542 nM.

On to `COc1ncc(-c2ccc(Cl)c(C(F)F)c2)cc1CN1CCOC1=O` [Example 115, 3-[[5-[4-Chloro-3-(difluoromethyl)phenyl]-2-methoxy-3-pyridyl]methyl]oxazolidin-2-one], for which the IC50 worked out at 10 nM.

Regarding `COc1ncc(-c2ccc(F)c(C)c2)cc1CN1CCOC1=O` [Example 116, 3-[[5-(4-Fluoro-3-methyl-phenyl)-2-methoxy-3-pyridyl]methyl]oxazolidin-2-one], the IC50 was found to be 18 nM.

On to `COc1ncc(-c2ccc(F)c(OC(F)F)c2)cc1CN1C(=O)OC[C@@H]1C` [Example 117, (4S)-3-[[5-[3-(Difluoromethoxy)-4-fluoro-phenyl]-2-methoxy-3-pyridyl]methyl]-4-methyl-oxazolidin-2-one], for which the IC50 came out at 60 nM.

Consider `COc1ncc(-c2ccc(F)c(OC(F)F)c2)cc1CN1C(=O)OC[C@H]1C` [Example 118, (4R)-3-[[5-[3-(Difluoromethoxy)-4-fluoro-phenyl]-2-methoxy-3-pyridyl]methyl]-4-methyl-oxazolidin-2-one], for which the 50% inhibitory concentration (IC50) was determined as 26 nM.

Turning to `COc1ncc(-c2ccc(F)c(OC(F)F)c2)cc1CN1CCOC1=O` [Example 119, 3-[[5-[3-(Difluoromethoxy)-4-fluoro-phenyl]-2-methoxy-3-pyridyl]methyl]oxazolidin-2-one], the IC50 was found to be 12 nM.

Turning to `COc1ncc(-c2ccc(F)c(C(F)F)c2)cc1CN1C(=O)OC[C@@H]1C` [Example 120, (4S)-3-[[5-[3-(Difluoromethyl)-4-fluoro-phenyl]-2-methoxy-3-pyridyl]methyl]-4-methyl-oxazolidin-2-one], the concentration for half-maximal inhibition (IC50) came out at 121 nM.

In the case of `COc1ncc(-c2ccc(F)c(C(F)F)c2)cc1CN1C(=O)OC[C@H]1C` [Example 121, (4R)-3-[[5-[3-(Difluoromethyl)-4-fluoro-phenyl]-2-methoxy-3-pyridyl]methyl]-4-methyl-oxazolidin-2-one], the IC50 is 21 nM.

As to `COc1ncc(-c2ccc(F)c(C(F)F)c2)cc1CN1CCOC1=O` [Example 122, 3-[[5-[3-(Difluoromethyl)-4-fluoro-phenyl]-2-methoxy-3-pyridyl]methyl]oxazolidin-2-one], the IC50 is 15 nM.

Turning to `O=C1OCCCN1Cc1cc(-c2ccc(F)c(C(F)F)c2)cnc1C(F)F` [Example 123, 3-[[2-(Difluoromethyl)-5-[3-(difluoromethyl)-4-fluoro-phenyl]-3-pyridyl]methyl]-1,3-oxazinan-2-one], the IC50 was found to be 63 nM.

As to `O=C1OCCN1Cc1cc(-c2ccc(F)c(C(F)F)c2)cnc1C(F)F` [Example 124, 3-[[2-(Difluoromethyl)-5-[3-(difluoromethyl)-4-fluoro-phenyl]-3-pyridyl]methyl]oxazolidin-2-one], the IC50 is 56 nM.

As to `O=C1OCCN1Cc1cc(-c2ccc(F)c(OC(F)F)c2)cnc1C(F)F` [Example 125, 3-[[5-[3-(Difluoromethoxy)-4-fluoro-phenyl]-2-(difluoromethyl)-3-pyridyl]methyl]oxazolidin-2-one], the IC50 came out at 39 nM.

For the molecule `O=C1OCCCN1Cc1cc(-c2ccc(F)c(OC(F)F)c2)cnc1C(F)F` [Example 126, 3-[[5-[3-(Difluoromethoxy)-4-fluoro-phenyl]-2-(difluoromethyl)-3-pyridyl]methyl]-1,3-oxazinan-2-one], the IC50 was 19 nM.

For the molecule `Cc1cc(-c2cnc(C(F)F)c(CN3CCCOC3=O)c2)ccc1F` [Example 127, 3-[[2-(Difluoromethyl)-5-(4-fluoro-3-methyl-phenyl)-3-pyridyl]methyl]-1,3-oxazinan-2-one], the IC50 is 276 nM.

Take `Cc1cc(-c2cnc(C(F)F)c(CN3CCOC3=O)c2)ccc1F` [Example 128, 3-[[2-(Difluoromethyl)-5-(4-fluoro-3-methyl-phenyl)-3-pyridyl]methyl]oxazolidin-2-one]: the IC50 is 204 nM.

`O=C1OCCCN1Cc1cc(-c2ccc(Cl)c(OC(F)F)c2)cnc1C(F)F` [Example 129, 3-[[5-[4-Chloro-3-(difluoromethoxy)phenyl]-2-(difluoromethyl)-3-pyridyl]methyl]-1,3-oxazinan-2-one]: the IC50 turned out to be 59 nM.

As to `O=C1OCCN1Cc1cc(-c2ccc(Cl)c(OC(F)F)c2)cnc1C(F)F` [Example 130, 3-[[5-[4-Chloro-3-(difluoromethoxy)phenyl]-2-(difluoromethyl)-3-pyridyl]methyl]oxazolidin-2-one], the IC50 came out at 30 nM.

`O=C1OCCN1Cc1cc(-c2ccc(F)c(C(F)F)c2)cnc1OC(F)F` [Example 131, 3-[[2-(Difluoromethoxy)-5-[3-(difluoromethyl)-4-fluoro-phenyl]-3-pyridyl]methyl]oxazolidin-2-one]: the IC50 is 153 nM.

Turning to `C[C@@H]1COC(=O)N1Cc1cc(-c2ccc(F)c(C(F)F)c2)cnc1OC(F)F` [Example 132, (4R)-3-[[2-(Difluoromethoxy)-5-[3-(difluoromethyl)-4-fluoro-phenyl]-3-pyridyl]methyl]-4-methyl-oxazolidin-2-one], the IC50 was 176 nM.

`O=C1OCCN1Cc1cc(-c2ccc(F)c(OC(F)F)c2)cnc1OC(F)F` [Example 133, 3-[[2-(Difluoromethoxy)-5-[3-(difluoromethoxy)-4-fluoro-phenyl]-3-pyridyl]methyl]oxazolidin-2-one]: the IC50 was 76 nM.

With `C[C@@H]1COC(=O)N1Cc1cc(-c2ccc(F)c(OC(F)F)c2)cnc1OC(F)F` [Example 134, (4R)-3-[[-(Difluoromethoxy)-5-[3-(difluoromethoxy)-4-fluoro-phenyl]-3-pyridyl]methyl]-4-methyl-oxazolidin-2-one], the IC50 worked out at 61 nM.

As for `CC(F)(F)c1ncc(-c2ccc(F)c(C(F)F)c2)cc1CN1CCOC1=O` [Example 135, 3-[[2-(1,1-Difluoroethyl)-5-[3-(difluoromethyl)-4-fluoro-phenyl]-3-pyridyl]methyl]oxazolidin-2-one], the IC50 was determined as 47 nM.

For the molecule `CC(F)(F)c1ncc(-c2ccc(F)c(C(F)F)c2)cc1CN1CCCOC1=O` [Example 136, 3-[[2-(1,1-Difluoroethyl)-5-[3-(difluoromethyl)-4-fluoro-phenyl]-3-pyridyl]methyl]-1,3-oxazinan-2-one], the IC50 was determined as 99 nM.

Regarding `CC(F)(F)c1ncc(-c2ccc(F)c(OC(F)F)c2)cc1CN1CCCOC1=O` [Example 137, 3-[[2-(1,1-Difluoroethyl)-5-[3-(difluoromethoxy)-4-fluoro-phenyl]-3-pyridyl]methyl]-1,3-oxazinan-2-one], the IC50 came to 76 nM.

Regarding `CC(F)(F)c1ncc(-c2ccc(F)c(C(F)F)c2)cc1CN1CC2(CCC2)OC1=O` [Example 138, 6-[[2-(1,1-Difluoroethyl)-5-[3-(difluoromethyl)-4-fluoro-phenyl]-3-pyridyl]methyl]-8-oxa-6-azaspiro[3.4]octan-7-one], the IC50 is 549 nM.

On to `C[C@@H]1CN(Cc2cc(-c3ccc(F)c(C(F)F)c3)cnc2C(C)(F)F)C(=O)O1` [Example 139, (5R)-3-[[2-(1,1-Difluoroethyl)-5-[3-(difluoromethyl)-4-fluoro-phenyl]-3-pyridyl]methyl]-5-methyl-oxazolidin-2-one], for which the IC50 is 134 nM.

On to `C[C@H]1CN(Cc2cc(-c3ccc(F)c(C(F)F)c3)cnc2C(C)(F)F)C(=O)O1` [Example 140, (5S)-3-[[2-(1,1-Difluoroethyl)-5-[3-(difluoromethyl)-4-fluoro-phenyl]-3-pyridyl]methyl]-5-methyl-oxazolidin-2-one], for which the 50% inhibitory concentration (IC50) worked out at 111 nM.

As for `CC(F)(F)c1ncc(-c2ccc(F)c(C(F)F)c2)cc1CN1CC2(CC2)OC1=O` [Example 141, 5-[[2-(1,1-Difluoroethyl)-5-[3-(difluoromethyl)-4-fluoro-phenyl]-3-pyridyl]methyl]-7-oxa-5-azaspiro[2.4]heptan-6-one], the IC50 came to 245 nM.

Consider `C[C@H]1COC(=O)N1Cc1cc(-c2ccc(F)c(C(F)F)c2)cnc1C(C)(F)F` [Example 142, (4S)-3-[[2-(1,1-Difluoroethyl)-5-[3-(difluoromethyl)-4-fluoro-phenyl]-3-pyridyl]methyl]-4-methyl-oxazolidin-2-one], for which the half-maximal inhibitory concentration (IC50) was 2000 nM.

In the case of `C[C@@H]1COC(=O)N1Cc1cc(-c2ccc(F)c(C(F)F)c2)cnc1C(C)(F)F` [Example 143, (4R)-3-[[2-(1,1-Difluoroethyl)-5-[3-(difluoromethyl)-4-fluoro-phenyl]-3-pyridyl]methyl]-4-methyl-oxazolidin-2-one], the IC50 was found to be 180 nM.

Turning to `C[C@@H]1COC(=O)N1Cc1cc(-c2ccc(F)c(OC(F)F)c2)cnc1C(C)(F)F` [Example 144, (4R)-3-[[2-(1,1-Difluoroethyl)-5-[3-(difluoromethoxy)-4-fluoro-phenyl]-3-pyridyl]methyl]-4-methyl-oxazolidin-2-one], the IC50 stood at 157 nM.

The term IC50 denotes the concentration needed to halve the response being measured.

The values above are taken from US11447503B2, “Pyridine carbamates and their use as GLUN2B receptor modulators” (JANSSEN PHARMACEUTICA NV, priority 2019, dated 2022).
